Data: US20250179027A1, “CYCLOALKYL OR HETEROCYCLYL SUBSTITUTED HETEROARYL COMPOUND, AND COMPOSITION AND USE THEREOF” (Shenzhen TargetRx, Inc., priority 2022, published 2025)
pIC50: −log10 of the molar value.

Assays:
BTK kinase = biological target: T1, BTK kinase (Homo sapiens, UniProt Q06187); test: HTRF kinase activity inhibition assay, BTK; assay type: biochemical; conditions: HTRF TK kit
T1 construct: purchased Invitrogen PV3587
Description: (§1) In this assay, the HTRF TK Kit (Catalog No. 62TKOPEC) provided by Cisbio was used to detect the inhibitory activity of compounds on BTK kinase and BTK C481S kinase and the selectivity of compounds relative to EGFR, ITK and TEC kinases.
(§2) Reagents and consumables: BTK kinase (Invitrogen, Catalog No. PV3587), BTK C481S (Carna, Product No. 08-547), ITK (Carna, Product No. 08-181), EGFR (Carna, Product No. 08-115), TEC (Carna, Product No. 08-182), HTRF-TK kit (Cisbio, Product No. 62TKOPEC), MgCl2 (Sigma, Product No. M1028), MnCl2 (Sigma, Product No. M1787), DTT (Sigma, Product No. D0632), ATP (Sigma, Product No. A7699-1 g), DMSO (Sigma, Product No. D2650), 384-well plate (PE, Product No. 6008280).
(§3) The entire operation steps were carried out on ice, and the total reaction volume was 10 μL. The compound (4 μL), substrate and ATP (4 μL), kinase (2 μL) were added in sequence to a 384-well plate, and shaked for 30 seconds. After an appropriate time at room temperature, the detection reagent was added. After 1 hour at room temperature, the plate was detected with a microplate reader. The specific steps were as follows: • a) 1× kinase buffer solution required for kinase detection was calculated according to the amount of the detection compound, and prepared as needed; • b) compounds with 2.5×working concentration were prepared, the 100 times gradient concentration solution of compounds was diluted by 4 μL to the desired concentration, mixed well, and added to each well at 4 μL per well; • c) 5×working concentration of substrate and ATP were prepared, mixed in a ratio of 1:1 before adding to a 384-well plate, and added to each well at 4 μL per well; • d) 5×working concentration of kinase was prepared, and 2 μL was added to each well; • e) the plate was shaked on a microplate oscillator for 30 seconds, sealed with a sealing membrane, and reacted at room temperature for an appropriate time; • f) 4×working concentrations of streptavidin XL-665 and TK antibody-cryptate compound were prepared, mixed in a ratio of 1:1 before adding to a 384-well plate, and added to each well at 10 μL per well; • g) the plate was read after reacting at room temperature for 1 hour; • h) the wells with only substrate, ATP and 1% DMSO added but no kinase were blank control wells, and the wells with only substrate, ATP, 1% DMSO and kinase were positive control wells.
(§4) Readings: The values of 620 nm (cryptate) and 665 nm (XL665) were read with a BioTek Synerg Neo2 microplate reader, the ratio of 665/620 per well was calculated, and the data were exported. Data analysis: IC50 was calculated using GraphPad Prism 7.0 software. The following nonlinear fitting formula was used to obtain the IC50 (half inhibitory concentration) of compounds:
(§5) [formula] • X: Compound concentration log value • Y: Inhibition rate (% inhibition)
(§6) The kinase inhibition rate (% inhibition rate) was calculated as: […]

[1] = biological target: T2, phosphorylated BTK Y223 in NIH/3T3 BTK WT cells (Homo sapiens, UniProt Q06187); test: Phosphor-BTK(Y223) assay, NIH/3T3 BTK WT cells; assay type: cell-based; conditions: phosphorylated BTK Y223, NIH/3T3 BTK WT cells; read-out: NIH/3T3 BTK-WT pBTK IC50
T2 construct: expressed in transfected cells; host or cells: NIH/3T3 (mouse fibroblasts) engineered to express BTK WT
T2 sequence (Q06187 whole entry): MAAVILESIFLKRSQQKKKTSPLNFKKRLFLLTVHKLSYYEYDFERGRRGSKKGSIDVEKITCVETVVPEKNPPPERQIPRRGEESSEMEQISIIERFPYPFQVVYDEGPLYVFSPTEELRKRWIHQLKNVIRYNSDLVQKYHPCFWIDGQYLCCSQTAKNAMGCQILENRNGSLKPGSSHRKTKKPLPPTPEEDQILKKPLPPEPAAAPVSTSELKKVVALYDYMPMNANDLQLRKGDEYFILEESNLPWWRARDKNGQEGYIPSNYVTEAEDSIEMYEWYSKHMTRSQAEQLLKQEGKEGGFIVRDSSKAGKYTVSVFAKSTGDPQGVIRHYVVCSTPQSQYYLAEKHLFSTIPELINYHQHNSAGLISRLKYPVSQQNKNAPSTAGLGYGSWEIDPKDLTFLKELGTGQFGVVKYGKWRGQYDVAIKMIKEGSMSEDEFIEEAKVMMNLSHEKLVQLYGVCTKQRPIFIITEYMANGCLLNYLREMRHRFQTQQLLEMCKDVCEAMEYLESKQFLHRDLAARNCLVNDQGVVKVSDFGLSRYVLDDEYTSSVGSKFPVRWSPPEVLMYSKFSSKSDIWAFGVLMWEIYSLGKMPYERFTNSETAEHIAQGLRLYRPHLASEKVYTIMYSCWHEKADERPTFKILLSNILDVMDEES
Method: The purpose of this assay is to simply, quickly and directly detect the endogenous level of BTK in cells. The specific assay steps are as follows: Day 1: NIH/3T3 BTK WT cells (7.5 k/well) and NIH/3T3 BTK C481S cells (10 k/well) were plated in 96-well plates, respectively, and cultured overnight at 37° C. and 5% CO2.
• 1. A 3-fold final concentration gradient dilution of the compound was prepared, and 50 μL was added to 100 μL of cell culture; 0.5% DMSO was used as a positive control for cell growth. • 2. The plate was incubated at 37° C., 5% CO2 for 0.5 h. • 3. Na3VO4 with a final concentration of 1 mM was added, and incubated at 37° C. and 5% CO2 for 2 hours. • 4. During the incubation, the following reagents were prepared: 1× added lysis buffer: 3 vol ddH2O+1 vol 4× lysis buffer+100× blocking reagent. p-BTK (Y223) cryptate-antibody and p-BTK (Y223) d2-antibody working solutions: 1 volume of each cryopreserved antibody (stored at −20° C.) was added to 19 times volumes of assay buffer (stored at 4° C.). • 5. After the incubation, the medium was removed and 50 μL of 1× added lysis buffer was added; The mixture was centrifuged at 500 rpm for 30 min at room temperature. • 6. The lysate was mixed well and 16 μL was transferred to a 384-well plate; 1× added lysis buffer was used as a blank control. • 7. 4 μL of pre-mixed working solutions of the two antibodies (cryptate Ab:d2 Ab=1:1) were added and the plate was sealed. • 8. The plate was incubated overnight at room temperature.
Biotek cytation3.0 microplate reader was used to read the plate at 665 nm and 620 nm, and the ratio of 665/620 nm per well was calculated.
IC50 was calculated using GraphPad Prism 7.0 software.
The following nonlinear fitting formula was used to obtain the phosphorylated BTK Y223 IC50 (half phosphorylation inhibitory concentration) of the compounds:
as §5
The formula for calculating cell phosphorylation inhibition rate (% inhibition rate) was: […]

ITK = biological target: T3, ITK (Homo sapiens, UniProt Q08881); test: HTRF kinase activity inhibition assay, ITK; assay type: biochemical; conditions: HTRF TK kit
T3 construct: purchased Carna 08-181
T3 sequence (Q08881 1-620): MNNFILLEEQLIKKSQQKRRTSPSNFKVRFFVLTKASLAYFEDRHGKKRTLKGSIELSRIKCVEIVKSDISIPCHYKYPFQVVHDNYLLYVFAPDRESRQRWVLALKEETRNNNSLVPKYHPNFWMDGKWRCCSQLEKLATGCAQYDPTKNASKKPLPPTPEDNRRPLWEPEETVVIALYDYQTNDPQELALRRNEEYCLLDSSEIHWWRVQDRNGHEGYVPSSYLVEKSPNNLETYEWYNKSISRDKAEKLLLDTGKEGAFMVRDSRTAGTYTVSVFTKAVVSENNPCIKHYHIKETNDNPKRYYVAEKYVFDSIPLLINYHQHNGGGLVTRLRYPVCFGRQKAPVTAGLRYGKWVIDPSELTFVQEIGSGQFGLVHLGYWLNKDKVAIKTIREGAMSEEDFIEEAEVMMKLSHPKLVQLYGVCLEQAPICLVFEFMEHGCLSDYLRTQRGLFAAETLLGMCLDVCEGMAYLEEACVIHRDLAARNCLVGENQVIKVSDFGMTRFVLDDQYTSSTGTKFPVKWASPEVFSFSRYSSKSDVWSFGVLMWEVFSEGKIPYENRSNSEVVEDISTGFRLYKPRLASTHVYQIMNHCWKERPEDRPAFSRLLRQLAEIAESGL
Description: as §1, §2, §3, §4, §5, §6

TEC = biological target: T4, TEC (Homo sapiens, UniProt P42680); test: HTRF kinase activity inhibition assay, TEC; assay type: biochemical; conditions: HTRF TK kit
T4 construct: purchased Carna 08-182
T4 sequence (P42680 1-631): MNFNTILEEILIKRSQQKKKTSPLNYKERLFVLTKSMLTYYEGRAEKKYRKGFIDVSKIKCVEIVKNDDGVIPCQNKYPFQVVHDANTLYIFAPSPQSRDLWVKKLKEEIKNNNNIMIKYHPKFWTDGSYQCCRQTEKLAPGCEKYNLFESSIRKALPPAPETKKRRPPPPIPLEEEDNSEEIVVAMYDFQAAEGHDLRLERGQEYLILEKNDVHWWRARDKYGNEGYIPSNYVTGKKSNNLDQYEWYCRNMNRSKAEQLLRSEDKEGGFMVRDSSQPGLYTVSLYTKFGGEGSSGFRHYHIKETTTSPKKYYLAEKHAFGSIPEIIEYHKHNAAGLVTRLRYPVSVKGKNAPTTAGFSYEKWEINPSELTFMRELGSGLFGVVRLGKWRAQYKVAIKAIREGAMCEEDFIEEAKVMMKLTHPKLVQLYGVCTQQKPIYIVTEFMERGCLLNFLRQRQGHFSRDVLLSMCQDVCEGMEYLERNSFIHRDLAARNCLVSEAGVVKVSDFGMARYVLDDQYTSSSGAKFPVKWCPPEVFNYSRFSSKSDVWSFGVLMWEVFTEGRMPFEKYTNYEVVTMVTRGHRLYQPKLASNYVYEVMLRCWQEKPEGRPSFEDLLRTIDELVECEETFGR
Description: as §1, §2, §3, §4, §5, §6

EGFR = biological target: T5, EGFR (Homo sapiens, UniProt P00533); test: HTRF kinase activity inhibition assay, EGFR; assay type: biochemical; conditions: HTRF TK kit
T5 construct: purchased Carna 08-115
T5 sequence (P00533 669-1210 limits assumed): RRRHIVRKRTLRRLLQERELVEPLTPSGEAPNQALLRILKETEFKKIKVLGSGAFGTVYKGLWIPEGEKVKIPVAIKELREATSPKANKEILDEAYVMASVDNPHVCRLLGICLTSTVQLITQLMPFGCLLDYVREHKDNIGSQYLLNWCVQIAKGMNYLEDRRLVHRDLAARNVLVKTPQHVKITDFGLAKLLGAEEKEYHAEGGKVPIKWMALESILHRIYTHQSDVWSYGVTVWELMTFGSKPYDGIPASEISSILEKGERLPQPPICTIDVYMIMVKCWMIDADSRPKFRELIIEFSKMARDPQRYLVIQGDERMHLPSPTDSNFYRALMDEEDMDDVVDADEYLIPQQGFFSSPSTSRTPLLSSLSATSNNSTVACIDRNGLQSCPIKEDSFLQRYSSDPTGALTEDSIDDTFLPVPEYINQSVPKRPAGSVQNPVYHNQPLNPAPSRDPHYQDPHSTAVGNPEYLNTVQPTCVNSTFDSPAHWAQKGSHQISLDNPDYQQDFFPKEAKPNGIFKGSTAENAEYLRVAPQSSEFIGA
Description: as §1, §2, §3, §4, §5, §6

T1 sequence (Q06187 whole entry): as the sequence (Q06187 whole entry) above

pIC50 (BTK kinase)	pIC50 [1]	pIC50 (ITK)	pIC50 (TEC)	pIC50 (EGFR)	Compound
≥ 8.00	≥ 7.60	< 5.00	6.00 to 7.00	7.00 to 7.30	COc1ccc(F)cc1C(=O)NCc1ccc(-c2nn(C3CCC(O)C3)c3ncnc(N)c23)cc1 (single isomer, unassigned) [Example 33, N-(4-(4-amino-1-(3-hydroxycyclopentanyl)-1H-pyrazolo[3,4-d]pyrimidin-3-yl)benzyl)-5-fluoro-2-methoxybenzamide]
≥ 8.00	≥ 7.60	< 5.00	6.00 to 7.00	5.00 to 6.00	COc1ccc(F)cc1C(=O)NCc1ccc(-c2nn(C3CCC(O)C3)c3ncnc(N)c23)cc1 (single isomer, unassigned) [Example 36, N-(4-(4-amino-1-(3-hydroxycyclopentanyl)-1H-pyrazolo[3,4-d]pyrimidin-3-yl)benzyl)-5-fluoro-2-methoxybenzamide]
≥ 8.00	≥ 7.60	< 5.00	6.00 to 7.00	7.00 to 7.30	COc1ccc(F)cc1C(=O)NCc1ccc(-c2nn(C3CCC(O)C3)c3ncnc(N)c23)cc1 (single isomer, unassigned) [Example 34, N-(4-(4-amino-1-(3-hydroxycyclopentanyl)-1H-pyrazolo[3,4-d]pyrimidin-3-yl)benzyl)-5-fluoro-2-methoxybenzamide]
≥ 8.00	≥ 7.60	< 5.00	6.00 to 7.00	7.00 to 7.30	COc1ccc(F)cc1C(=O)NCc1ccc(-c2nn(C3CCC(O)C3)c3ncnc(N)c23)cc1 (single isomer, unassigned) [Example 35, N-(4-(4-amino-1-(3-hydroxycyclopentanyl)-1H-pyrazolo[3,4-d]pyrimidin-3-yl)benzyl)-5-fluoro-2-methoxybenzamide]
